According to US12472159B2, “Compositions comprising amino acids for use in the prevention and treatment of chemotherapy side effects” (Professional Dietetics S.p.A., priority 2020, dated 2025):

Key:
HL-1 cardiomyocytes [1] = experiment: Mitochondrial biogenesis marker mRNA levels by quantitative RT-PCR in HL-1 cardiomyocytes; type: cell-based, mouse; conditions: HL-1 cells; for mRNA levels of mitochondrial biogenesis markers (PGC-1α, NRF1, Tfam, cyt c, COX IV): agent alone vs untreated cells, α5 1% w/v or BCAAem 48 h, 1 μM DOX 16 h; for prevention of DOX-induced decrease of mitochondrial biogenesis marker mRNA: supplement 48 h with 1 μM DOX 16 h, vs DOX-treated cells
Procedure: Rules of the Declaration of Helsinki have been followed. HL-1 cardiomyocytes were obtained from W.C. Claycomb (Millipore Cat #SCC065) and plated in fibronectin/gelatin-coated flasks, grown to 70-80% confluence in Claycomb medium (Sigma-Aldrich) supplemented with 100 μM norepinephrine (from a 10 mM norepinephrine [Sigma-Aldrich] stock solution dissolved in 30 mM L-ascorbic acid [Sigma-Aldrich]), 2 mM L-glutamine, 100 U/ml penicillin, 100 μg/ml streptomycin and 10% Fetal Bovine Serum (FBS, Sigma-Aldrich). MCF-7 human breast cancer cell line (ATCC® HTB-22™) also available from P. Limonta (Pharmacological and Biomolecular Sciences, University of Milan, Milan, Italy) were cultured in pH 7.4 DMEM, containing streptomycin (100 U/ml), penicillin ([…]), and gentamicin ([…]), and supplemented with 10% FBS. Both cell types were treated with […] or α5 for 48 h and 1 μM DOX for 16 h (FIG. 1). […] The cycle number at which the various transcripts were detectable (threshold cycle, CT) was compared to that of TBP, referred to as ΔCT.

HL-1 cardiomyocytes [2] = experiment: Citrate synthase activity in HL-1 cardiomyocytes; type: cell-based, mouse; conditions: HL-1 cells; agent alone vs untreated cells
Procedure: (§1) Rules of the Declaration of Helsinki have been followed. HL-1 cardiomyocytes were obtained from W.C. Claycomb (Millipore Cat #SCC065) and plated in fibronectin/gelatin-coated flasks, grown to 70-80% confluence in Claycomb medium (Sigma-Aldrich) supplemented with 100 μM norepinephrine (from a 10 mM norepinephrine [Sigma-Aldrich] stock solution dissolved in 30 mM L-ascorbic acid [Sigma-Aldrich]), 2 mM L-glutamine, 100 U/ml penicillin, 100 μg/ml streptomycin and 10% Fetal Bovine Serum (FBS, Sigma-Aldrich). MCF-7 human breast cancer cell line (ATCC® HTB-22™) also available from P. Limonta (Pharmacological and Biomolecular Sciences, University of Milan, Milan, Italy) were cultured in pH 7.4 DMEM, containing streptomycin (100 U/ml), penicillin ([…]), and gentamicin ([…]), and supplemented with 10% FBS. Both cell types were treated with […] or α5 for 48 h and 1 μM DOX for 16 h (FIG. 1).

HL-1 cardiomyocytes [3] = experiment: Mitochondrial oxidative stress in HL-1 cardiomyocytes (H2O2 release, aconitase, SOD, anti-ROS genes, 8-OHdG); type: cell-based, mouse; conditions: HL-1 cells; agent alone vs untreated cells
Procedure: as §1
To investigate the mitochondrial oxidative stress, mitochondria were isolated using the Qproteome Mitochondria isolation kit (Qiagen). Mitochondrial H2O2 release was measured in the presence of horseradish peroxidase (HRP), using the Amplex Red Hydrogen Peroxide/Peroxidase Assay kit (Molecular Probes). Fluorometric measures were made using a Fusion Universal Microplate Analyzer (Packard/PerkinElmer) with excitation filter at 550 nm and emission filter at 590 nm. H2O2 production, calculated from a standard curve, was expressed as nmol/min/mg protein as described Moreover, mitochondrial aconitase and SOD activity were measured as previously described. Briefly, the formation of NADPH was followed spectrophotometrically (340 nm) at 25° C. (for aconitase activity), while SOD activity was measured with the Superoxide Dismutase Assay Kit (Calbiochem). […] Finally, the oxidative damage of DNA was measured as a further marker of oxidative stress. […] Quality and quantity of DNA were confirmed by a NanoDrop ND-1000 spectrophotometry analysis. Absorbance of the ELISA reaction product was determined spectrophotometrically using 450 nm as the primary wave.

HL-1 cardiomyocytes [4] = experiment: MTT viability assay of HL-1 cardiomyocytes; type: cell-based, mouse; conditions: agent alone; 1% α5 48 h or 1 μM DOX 16 h
Procedure: as §1, with “1). HL-1 cell viability was assessed by MTT [3-(4,5-dimethylthiazol-2-yl)-2,5-diphenyltetrazolium bromide] reagent (Sigma, Milan, Italy). […] The purple formazan crystals were dissolved in 5% SDS/0.1 M HCl (100 μl/well), and the absorbance was recorded on a microplate reader (ELx800, BioTek Instruments, VT, USA) at a wavelength of 570 nm. Each test was repeated at least four times in quadruplicates.” for “1).”

[5] = system: left ventricle of DOX-treated mice; experiment: Signaling pathways (eNOS, mTORC1, Sestrin2, KLF15, BCKDH) in left ventricle of mice; type: in vivo, C57BL6/J mice
Procedure: (§2) Drinking volume, food intake, and body weight were checked twice weekly. At the end of the treatment period, mice were sacrificed by cervical dislocation and hearts quickly removed and freshly used (for oxygen consumption analysis) or frozen in liquid nitrogen and stored at ˜80° C. (for mtDNA, mRNA, and protein level measurement, in addition to citrate synthase activity analysis).
(§3) Quantitative RT-PCRs were performed as previously described [3-7] with the iQ SybrGreenl SuperMix (Bio-Rad; Segrate, Italy) on an iCycler iQ real-time PCR detection system (Bio-Rad). Briefly, RNA was isolated from left ventricle using the RNeasy Tissue Mini Kit (Qiagen) or from HL-1 cells using the RNeasy Mini Kit (Qiagen). cDNA was synthesized using the iScript cDNA Synthesis Kit (Bio-Rad Laboratories).
Protein extracts were obtained from left ventricle with T-PER mammalian protein extraction reagent (Pierce, ThermoScientific, Rockford, USA) or from HL-1 cells in M-PER mammalian protein extraction reagent (Pierce, ThermoScientific, Rockford, USA), as indicated by the manufacturer, in the presence of 1 mM NaVO4, 10 mM NaF and a cocktail of protease inhibitors (Sigma-Aldrich, Milan, Italy). Protein content was determined by the bicinchoninic acid protein assay (BCA, Pierce, Euroclone, Milan, Italy), and 50 of the protein extract was separated by SDS-PAGE under reducing conditions. The separated proteins were then electrophoretically transferred to a nitrocellulose membrane (Bio-Rad Laboratories, Segrate, Italy) [3-8]. Proteins of interest were detected with specific antibodies: anti-COX IV (cytochrome c oxidase subunit IV, Cell Signaling Technology Cat #4844, Euroclone, Milan, Italy), anti-cyt c (cytochrome complex, Cell Signaling Technology Cat #4280), anti-PGC-1α (proliferator-activated receptor γ coactivator 1α, Cell Signaling Technology Cat #2178), anti-phospho-AKT (Ser473) (Cell Signaling Technology Cat #4060), anti-AKT (Cell Signaling Technology Cat #4685), anti-phospho-eNOS (Ser1177) (phospho-endothelial nitric oxide synthase, Cell Signaling Technology Cat #9571), anti-eNOS (Cell Signaling Technology Cat #9572), anti-phospho-S6 (Ser235/236) (phospho-S6, Cell Signaling Technology Cat #4858), anti-S6 (Cell Signaling Technology Cat #2217), anti-phospho-mTOR (Ser2481) (Cell Signaling Technology Cat #2974), anti-mTOR (Cell Signaling Technology Cat #2972), anti-phospho-BCKDH (Ser293) (Abcam Cat #200577), anti-BCKDH (Abcam Cat #138460), and anti-GAPDH (1:1000, Cell Signaling Technology Cat #2118) at 1:1000 dilution each. After the visualization of phospho-eNOS, phospho-AKT, phospho-mTOR, phospho-S6, and anti-phospho-BCKDH the filters were stripped with the Restore™ western blot stripping buffer (Euroclone, Milan, Italy) and further used for the visualization of total eNOS, total AKT, total mTOR, total S6, or total BCKDH. Immunostaining was performed using horseradish peroxidase-conjugated anti-rabbit or anti-mouse immunoglobulin for 1 h at room temperature. The protein was detected using SuperSignal substrate (Pierce, Euroclone, Milan, Italy) and quantified by densitometry with ImageJ image analysis software.

HL-1 cardiomyocytes [6] = experiment: Signaling pathways (eNOS, S6, Sestrin2, Akt, KLF15, BCKDH) in HL-1 cardiomyocytes; type: cell-based, mouse; conditions: HL-1 cells
Procedure: as §1, with “HTB-22TM)” for “HTB-22™)”, “1). […] Lafayette, CO) or siGENOME nontargeting siRNA using Dharmafect 1 transfection reagent. After 24 h transfection, cells were treated with 1% α5 for 24 h and 1 μM DOX for 16 h. Transfection efficacy was determined with siGLO-RISC-free nontargeting siRNA and siRNA uptake by fluorescence detection (absorbance/emission 557/570). Proteins were then extracted for Western blotting analysis.” for “1).”

HL-1 cardiomyocytes [7] = experiment: Klf15, eNOS and Raptor siRNA knockdown in HL-1 cardiomyocytes, RT-PCR and immunoblot; type: cell-based, mouse; conditions: HL-1 cells
Procedure: For the study of phospho-proteins, HL-1 cells were treated with 1% α5 for 2 h and 1 μM DOX (Doxo-HCl from Sigma-Aldrich D15D15) for the last 60 min. […] After 24 h transfection, cells were treated with 1% α5 for 24 h and 1 μM DOX for 16 h. Transfection efficacy was determined with siGLO-RISC-free nontargeting siRNA and siRNA uptake by fluorescence detection (absorbance/emission 557/570). Proteins were then extracted for Western blotting analysis.

[8] = system: left ventricle of DOX-treated mice; experiment: Mitochondrial biogenesis, mass, function and ROS defense genes in left ventricle of DOX-treated mice
Procedure: as §2, §3
For mtDNA analysis, total DNA was extracted with a QIAamp DNA Extraction Kit (Qiagen). mtDNA was amplified using primers specific for the mtDNA and normalized to the 18S gene (Table 2) [9]. The mtDNA content was determined using qRT-PCR by measuring the threshold cycle ratio (ΔCT) of the mtDNA gene vs. that of a nuclear encoded gene (18S) in left ventricle of DOX-, α5- or DOX plus α5-treated mice, in addition to control untreated mice [10,11].
The activity was measured spectrophotometrically at 412 nm at 30° C. in left ventricle extracts [12,13].

SMILES: COc1cccc2c1C(=O)c1c(O)c3c(c(O)c1C2=O)C[C@@](O)(C(=O)CO)C[C@@H]3O[C@H]1C[C@H](N)[C@H](O)[C@H](C)O1 [DOX, doxorubicin]
- mRNA levels of mitochondrial biogenesis markers (PGC-1α, NRF1, Tfam, cyt c, COX IV) (HL-1 cardiomyocytes [1]): decreased
- citrate synthase activity (HL-1 cardiomyocytes [2]): reduction of citrate synthase activity
- 8-hydroxy-2′-deoxyguanosine (8-OHdG), oxidative DNA damage (HL-1 cardiomyocytes [3]): higher amount
- expression of GPX1 and SOD1 genes (HL-1 cardiomyocytes [3]): increased
- mitochondrial H2O2 release (HL-1 cardiomyocytes [3]): markedly increased
- HL-1 cell survival (MTT) (HL-1 cardiomyocytes [4]): DOX-induced death of HL-1 cells
- Klf15 mRNA levels in left ventricle ([5]; agent alone): significantly reduced
- Ser2481 mTOR phosphorylation in heart ([5]; agent alone): reduced
- Sestrin2 mRNA in left ventricle ([5]; agent alone): markedly increased
- eNOS activity, (Ser1177)phospho-eNOS to total eNOS ratio, in left ventricle ([5]; agent alone): only partially eNOS activity
- eNOS expression in left ventricle ([5]; agent alone): decreased eNOS expression
- (Ser235/236)phospho-S6 to total S6 ratio in left ventricle ([5]; agent alone vs saline): decreased
- (Ser293)-BCKDH phosphorylation in left ventricle ([5]; agent alone vs saline-treated): unchanged
- (Ser293)-BCKDH phosphorylation (p-BCKDH) (HL-1 cardiomyocytes [6]; DOX vs untreated, α5 with or without DOX): not different
- (Ser235/236)-S6 phosphorylation (HL-1 cardiomyocytes [6]; agent alone): markedly decreased
- (Ser 473)-Akt phosphorylation (HL-1 cardiomyocytes [6]; agent alone): markedly reduced Akt phosphorylation
- KLF15 expression (mRNA and protein) (HL-1 cardiomyocytes [6]; agent alone): reduced both at mRNA and protein levels
- Sestrin2 expression (HL-1 cardiomyocytes [6]; agent alone): markedly increased
- (Ser1177)-eNOS phosphorylation (HL-1 cardiomyocytes [6]; agent alone, 1 μM DOX): markedly reduced
- eNOS gene expression (HL-1 cardiomyocytes [6]; agent alone, 1 μM DOX or α5 1% w/v): only slightly decreased
- PGC-1α and COX IV protein (HL-1 cardiomyocytes [7]; Klf15 siRNA-transfected or otherwise untreated, DOX exposure): significantly decreased both PGC-1α and COX IV protein
- (Ser293)-BCKDH phosphorylation in Klf15 knockdown cells (HL-1 cardiomyocytes [7]; Klf15 siRNA, DOX-treated and untreated): unable to change phosphorylation
- expression of ROS defense enzymes (SOD1, SOD2, catalase, GPX1) in left ventricle ([8]; agent alone): augmented the expression of ROS defense enzymes
- mRNA levels of mitochondrial biogenesis genes in left ventricle ([8]; agent alone vs control group): reduced
- mitochondrial mass and function (mtDNA amount, respiratory proteins particularly COX IV, citrate synthase activity) in left ventricle ([8]; agent alone vs saline-treated): lower
- oxygen consumption rate (OCR) of mitochondria isolated from left ventricle ([8]; agent alone, Clark's electrode): decreased OCR

SMILES: O=C(O)CC(O)C(=O)O (centres unmarked) [malic acid]
- mRNA levels of mitochondrial biogenesis markers (PGC-1α, NRF1, Tfam, cyt c, COX IV) (HL-1 cardiomyocytes [1]): unable to prevent the DOX-induced reduction of mitochondrial biogenesis as well as to change the mitochondrial gene expression when supplemented alone
- prevention of DOX-induced decrease of mitochondrial biogenesis marker mRNA (HL-1 cardiomyocytes [1]): unable to prevent the DOX-induced reduction of mitochondrial biogenesis

SMILES: O=C(O)CC(O)(CC(=O)O)C(=O)O [citric acid]
- mRNA levels of mitochondrial biogenesis markers (PGC-1α, NRF1, Tfam, cyt c, COX IV) (HL-1 cardiomyocytes [1]): unable to prevent the DOX-induced reduction of mitochondrial biogenesis as well as to change the mitochondrial gene expression when supplemented alone
- prevention of DOX-induced decrease of mitochondrial biogenesis marker mRNA (HL-1 cardiomyocytes [1]): unable to prevent the DOX-induced reduction of mitochondrial biogenesis

SMILES: O=C(O)CCC(=O)O [succinic acid]
- mRNA levels of mitochondrial biogenesis markers (PGC-1α, NRF1, Tfam, cyt c, COX IV) (HL-1 cardiomyocytes [1]): unable to prevent the DOX-induced reduction of mitochondrial biogenesis as well as to change the mitochondrial gene expression when supplemented alone
- prevention of DOX-induced decrease of mitochondrial biogenesis marker mRNA (HL-1 cardiomyocytes [1]): unable to prevent the DOX-induced reduction of mitochondrial biogenesis
